Assay results as given in US20180147296A1, “CARBON MATERIAL DELIVERY SYSTEMS AND METHODS” (The Research Foundation for The State University of New York, priority 2015, published 2018).

What was measured:
[1] = test system: HeLa cells; test: PrestoBlue viability assay, C6 ceramide; format: cell-based; settings: 8 μg/mL of C6; 24 hrs
Experimental: HeLa cells were seeded in flat-bottomed 96 well plates at a density of 5000 cells/well and were allowed to adhere overnight. Ceramide-loaded nanoparticles (O-GNRs or GNPs) were added to each well at various concentrations ranging from 10-100 μg/mL of nanoparticles. In order to ensure that any observed decrease in viability compared to untreated cells could not be attributed to the loading process, the loading process was repeated with only nanoparticles and incubated them with HeLa cells at the highest concentration used (100 μg/mL). After 24 hours, the media was aspirated and each well was rinsed twice with PBS. […] After 2 hours, the plates were removed and the fluorescence intensity of each well was measured using a Molecular Devices SpectraMax M2e (Sunnyvale, Calif., USA) with an excitation wavelength of 560 nm and an emission wavelength of 590 nm. […] The cell viability is expressed as a percent of the […] with the formula: […]
where Itest is the fluorescence intensity of cells exposed to ceramide-loaded nanoparticles, Icontrol is the fluorescence intensity of […], and Iblank is the fluorescence intensity from empty wells.
In a separate experiment, the efficacy of ceramide-loaded O-GNRs were compared to C6 ceramide without nanoparticles placed directly in the media. […] Viability was assessed with PrestoBlue using identical methods as described above.

[2] = PrestoBlue assay, separate cultures; format: cell-based; settings: human, separate culture, 80 μM Luc free or loaded, read-out: viability compared to untreated controls
Experimental: (§1) Luc alone (80 μM), 80 μM Luc loaded O-GNR-PEG-DSPE and O-GNR-PEG-DSPE (same weight as used for Luc loading) were incubated with CMV/U251, A1-5/CMV/U251, MCF-7 and CG-4 cells (5×10^3 cells per well in 96 well plates) for 24 hours. Following the incubation period the media was removed and the cells were washed twice with 1×PBS. 100 μL of fresh media was added to each well, as well as 10 μL of PrestoBlue® to each well, and incubated for 4 hours. Fluorescence was measured by Cytofluor fluorescence multiwell plate reader (Infinite M200, Tecan Group Ltd, NC, USA) with excitation at 530 nm, and emission at 580 nm.
(§2) The cell viability in terms of % of unexposed cells is expressed as the percentage of (Ftest−Fblank)/(Fcontrol−Fblank), where Ftest is the fluorescence of the cells exposed to nanoribbon-drug sample, Fcontrol is the fluorescence of the untreated sample and Fblank is the fluorescence of the wells without any cells. The PrestoBlue® reading for all lysed cells was also taken for comparison.

[3] = test system: MCF-7; test: PrestoBlue assay, separate cultures; format: cell-based; settings: 80 μM Luc free or loaded; 24 hours
Experimental: as §1, §2

[4] = test system: CG-4; test: PrestoBlue assay, separate cultures; format: cell-based, rat; settings: 80 μM Luc free or loaded; 24 hours
Experimental: as §1, §2

[5] = PrestoBlue assay, MCF-7-CMV/U251 co-culture; format: cell-based; settings: human, read-out: viability compared to untreated controls
Experimental: (§3) MCF-7, CG-4 and CMV/U251 were seeded separately on 12 mm round glass coverslips (Fisherbrand, Fisher Scientific, PA) in 100 mm plates at a density of 2.2×10^6 cells and allowed to grow overnight. For the two separate co-culture condition experiments, one coverslip from each cell line was placed in 6 well plates, for a total of two coverslips per well. These cells were then incubated with Luc alone (80 μM), 80 μM Luc loaded O-GNR-PEG-DSPE or O-GNR-PEG-DSPE for 24 h. After the incubation period, the media was removed and the cells were washed twice with 1×PBS. Each coverslip was then transferred to its own well in 6 well plates containing 3 mL of media and 300 μL of PrestoBlue® reagent. After incubating for 4 h, the fluorescence intensity was recorded using the procedure described above.

[6] = PrestoBlue assay, CG-4-CMV/U251 co-culture; format: cell-based; settings: read-out: viability compared to untreated controls
Experimental: as §3

[7] = test system: A1-5/CMV/U251; test: Annexin V/PI staining, flow cytometry; format: cell-based; settings: 4 hours; for % AV+ / % PI + AV+ / % PI+ / % PI−AV−: A1-5/CMV/U251, free or on GONR
Experimental: (§4) Luc alone and Luc-loaded O-GNR-PEG-DSPEs at different concentrations (5-80 μM) were incubated with CMV/U251, A1-5/CMV/U251 and CG-4 (5×10^5 cells/3 mL in 6-well plates) for 4 hours. Unexposed cells were used as control. Unloaded O-GNR-PEG-DSPEs in amounts equivalent to the loaded nanoparticles were also exposed to all the cell types as delivery agent control. The viability of the cells was analyzed by flow cytometry after Annexin V/PI staining using FACS Calibur Cell Sorter (BD Biosciences, San Jose, Calif.).
(§5) Annexin V (AV) is a 35 KDa phospholipid binding protein with an affinity for phosphotidyl serine. Early apoptotic cells show exposed phosphotidyl serine on their cell surface while it is still intact. PI on the other hand can only enter dead cells or early necrotic cells with compromised membranes. Thus, in flow cytometry AV+/PI+ represents dead cells, AV+/PI− represents cells in early apoptosis, AV−/PI+ represents dead or necrotic cells with compromised membranes, and AV−/PI− represents healthy living cells. […] However, 37% of cells were still living after 4 hours of exposure to O-GNR-PEG-DSPE loaded with 80 μM Luc.

[8] = test system: CMV/U251; test: Annexin V/PI staining, flow cytometry; format: cell-based; settings: 4 hours; for % AV+ / % PI + AV+ / % PI+ / % PI−AV−: CMV/U251, free or on GONR
Experimental: as §4, §5

[9] = test system: HeLa cells; test: Confocal microscopy of C12 NBD ceramide; format: cell-based; settings: 2 hours
Experimental: C12 NBD ceramide was loaded onto O-GNRs using the same procedure as C24 and C16 ceramide. HeLa cells were seeded in glass-inset confocal dishes at a density of 7.5×10^4 cells/mL with 2 mL per plate and allowed to adhere overnight. Cells were treated with either 5 μM fluorescent C12 NBD ceramide or an equivalent amount of fluorescent C12 NBD ceramide loaded on O-GNRs for 2 hours and imaged using a Leica TCS SP8 Laser Scanning Confocal Microscope System (Buffalo Grove, Ill., USA). Cells were pretreated with inhibitors of O-GNR uptake Dynasore and Gefitinib, endosome disruptor Desipramine, or no treatment for 30 minutes prior to the addition of ceramide or ceramide-loaded O-GNRs.

[10] = test system: HeLa cells; test: Live-cell confocal microscopy of NBD-ceramide; format: cell-based; settings: 40 μg/mL loaded O-GNRs or equal NBD-ceramide in ethanol; one hour
Experimental: In order to visualize the uptake of ceramide-loaded nanoparticles into cells, we loaded O-GNRs with C6 ceramide conjugated to 4-Chloro-7-nitrobenzofurazan (NBD-ceramide). HeLa cells were seeded in glass-inset confocal dishes at a density of 7.5×10^4 cells/mL with 2 mL per plate and allowed to adhere overnight. The following day, cells were placed in a LiveCell™ stage top incubation platform (Pathology Devices Inc., Westminster, Md., USA) and NBD-ceramide-loaded O-GNRs were added to these plates at a concentration of 40 μg/mL. As a control, cells were also incubated with an equivalent amount of NBD-ceramide in ethanol in a separate experiment. The cells were then imaged using a Leica TCS SP8 Laser Scanning Confocal Microscope System (Buffalo Grove, Ill., USA) over a period of one hour at two minute intervals.

CCCCCCCCCCCCC/C=C/[C@@H](O)[C@H](CO)NC(=O)CCCCC [C6 ceramide, C6-Ceramide]
HeLa cell viability greater than lysed cells [1]: 55.8%

CCN(CC)CCNc1ccc(C)c2sc3ccccc3c(=O)c12 [Lucanthone]
viability at 24 h, 80 μM ([2]; A1-5/CMV/U251 cells): ~30% | viability at 24 h, 80 μM ([2]; CMV/U251 cells): ~40% | toxicity (PrestoBlue) [3]: toxic | toxicity (PrestoBlue) [4]: toxic | viability at 24 h, 80 μM ([5]; CMV/U251 cells on coverslips, co-cultured with MCF-7 cells, CMV/U251 in co-culture with MCF-7, 80 μM Luc free or loaded, or carrier alone): ~28% | viability at 24 h, 80 μM ([5]; MCF-7 cells on coverslips, co-cultured with CMV/U251 cells, MCF-7 in co-culture with CMV/U251, 80 μM Luc free or loaded, or carrier alone): ~36% | viability at 24 h, 80 μM ([6]; human, CMV/U251 cells on coverslips, co-cultured with CG-4 cells, CMV/U251 in co-culture with CG-4, 80 μM Luc free or loaded): ~15% | viability at 24 h, 80 μM ([6]; rat, CG-4 cells on coverslips, co-cultured with CMV/U251 cells, CG-4 in co-culture with CMV/U251, 80 μM Luc free or loaded): ~30% | cell death ([7]; 40 μM free Luc): 100% | % AV+ ([7]; 5 μM lucanthone): 0% | % PI + AV+ ([7]; 5 μM lucanthone): 0% | % PI+ ([7]; 5 μM lucanthone): 76% | % PI−AV− ([7]; 5 μM lucanthone): 24% | % AV+ ([7]; 10 μM lucanthone): 0% | % PI + AV+ ([7]; 10 μM lucanthone): 0% | % PI+ ([7]; 10 μM lucanthone): 92% | % PI−AV− ([7]; 10 μM lucanthone): 8% | % AV+ ([7]; 20 μM lucanthone): 0% | % PI + AV+ ([7]; 20 μM lucanthone): 0% | % PI+ ([7]; 20 μM lucanthone): 98% | % PI−AV− ([7]; 20 μM lucanthone): 2% | % AV+ ([7]; 40 μM lucanthone): 0% | % PI + AV+ ([7]; 40 μM lucanthone): 0% | % PI+ ([7]; 40 μM lucanthone): 100% | % PI−AV− ([7]; 40 μM lucanthone): 0% | % AV+ ([7]; 80 μM lucanthone): 0% | % PI + AV+ ([7]; 80 μM lucanthone): 0% | % PI+ ([7]; 80 μM lucanthone): 100% | % PI−AV− ([7]; 80 μM lucanthone): 0% | cell death ([8]; 80 μM free Luc): 100% | % AV+ ([8]; 5 μM lucanthone): 0% | % PI + AV+ ([8]; 5 μM lucanthone): 17% | % PI+ ([8]; 5 μM lucanthone): 78% | % PI−AV− ([8]; 5 μM lucanthone): 20% | % AV+ ([8]; 10 μM lucanthone): 0% | % PI + AV+ ([8]; 10 μM lucanthone): 0% | % PI+ ([8]; 10 μM lucanthone): 95% | % PI−AV− ([8]; 10 μM lucanthone): 5% | % AV+ ([8]; 20 μM lucanthone): 0% | % PI + AV+ ([8]; 20 μM lucanthone): 0% | % PI+ ([8]; 20 μM lucanthone): 97% | % PI−AV− ([8]; 20 μM lucanthone): 3% | % AV+ ([8]; 40 μM lucanthone): 0% | % PI + AV+ ([8]; 40 μM lucanthone): 0% | % PI+ ([8]; 40 μM lucanthone): 97% | % PI−AV− ([8]; 40 μM lucanthone): 3% | % AV+ ([8]; 80 μM lucanthone): 5% | % PI + AV+ ([8]; 80 μM lucanthone): 0% | % PI+ ([8]; 80 μM lucanthone): 95% | % PI−AV− ([8]; 80 μM lucanthone): 0% | % PI−AV− ([8]; 80 μM lucanthone, listed as Luc): no healthy living cells remaining | nature of cell death (dead cells PI+/AV−) ([8]; CMV/U251 and A1-5/CMV/U251, 5-80 μM): necrotic

CCCCCCCCCCCCC/C=C/[C@@H](O)[C@H](CO)NC(=O)CCCCCCCCCCCNc1ccc([N+](=O)[O-])c2nonc12 [C12 NBD ceramide]
fluorescence compared with cells not treated with inhibitor ([9]; pretreated with Dynasore 30 minutes): no difference | fluorescence compared with cells not treated with inhibitor ([9]; pretreated with Gefitinib 30 minutes): no difference | endosome localization compared with cells not treated with desipramine ([9]; pretreated with desipramine 30 minutes): significantly less endosome localization

CCCCCCCCCCCCC/C=C/C(O)C(CO)NC(=O)CCCCCNc1ccc([N+](=O)[O-])c2nonc12 [NBD ceramide, C6 N-[6-[(7-nitro-2-1,3-benzoxadiazol-4-yl)amino]hexanoyl]-D-erythro-sphingosine]
uptake of NBD ceramide into cells (fluorescence) [10]: rapid uptake
